Read-outs that look alike come from different tables or passages of the source.
Columns and labels:
[1] = target: T1, 5-HT2A receptor (Homo sapiens, UniProt P28223); test: Functional activity, FLIPR calcium assay, CHO cells expressing human 5-HT2A; assay type: cell-based; design: expressed in transfected cells; host or cells: CHO cells
Description: (§1) The functional activity of compounds of formula (I) was assayed using a Fluorimetric Imaging Plate reader (FLIPR). CHO cells expressing the human 5-HT2C or human 5-HT2A receptors were counted and plated into standard 96 well microtitre plates on the day before testing to give a confluent monolayer. The cells were then dye loaded with the calcium sensitive dye, Fluo-3-AM. Unincorporated dye was removed using an automated cell washer to leave a total volume of 100 μL/well of assay buffer (Hanks balanced salt solution containing 20 mM Hepes and 2.5 mM probenecid). The drug (dissolved in 50 μL of the assay buffer) was added at a rate of 70 μL/sec to each well of the FLIPR 96 well plate during fluorescence measurements. The measurements were taken at 1 sec intervals and the maximum fluorescent signal was measured (approx 10-15 secs after drug addition) and compared with the response produced by 10 μM 5-HT (defined as 100%) to which it was expressed as a percentage response (relative efficacy). Dose response curves were constructed using Graphpad Prism (Graph Software Inc.).

[2] = target: T2, 5-HT2C receptor (Homo sapiens, UniProt P28335); test: Functional activity, FLIPR calcium assay, CHO cells expressing human 5-HT2C; assay type: cell-based; design: expressed in transfected cells; host or cells: CHO cells; conditions: for h5-HT2c Relative Efficacy: relative to response of 10 μM 5-HT (100%)
T2 sequence (P28335 33-458): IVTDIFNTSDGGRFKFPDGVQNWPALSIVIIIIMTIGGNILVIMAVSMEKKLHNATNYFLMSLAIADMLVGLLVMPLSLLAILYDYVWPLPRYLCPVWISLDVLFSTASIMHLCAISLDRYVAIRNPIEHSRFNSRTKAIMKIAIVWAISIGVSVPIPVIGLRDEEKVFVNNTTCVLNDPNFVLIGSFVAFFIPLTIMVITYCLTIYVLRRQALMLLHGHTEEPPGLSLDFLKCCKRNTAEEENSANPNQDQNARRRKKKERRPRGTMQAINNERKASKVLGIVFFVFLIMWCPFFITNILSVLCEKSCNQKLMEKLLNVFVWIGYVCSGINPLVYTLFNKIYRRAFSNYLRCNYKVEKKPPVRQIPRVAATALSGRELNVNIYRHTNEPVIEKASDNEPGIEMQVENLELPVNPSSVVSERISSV
Description: as §1

[3] = literature; cited from earlier work
[4] = literature, cited from earlier work
[5] = target: T3, human 5-HT2B receptors (Homo sapiens, UniProt P41595); test: Binding to the 5-HT2B receptor, Method (b), [3H]-5-HT
T3 construct: expressed in transfected cells; host or cells: CHO cell line
T3 sequence (P41595 whole entry): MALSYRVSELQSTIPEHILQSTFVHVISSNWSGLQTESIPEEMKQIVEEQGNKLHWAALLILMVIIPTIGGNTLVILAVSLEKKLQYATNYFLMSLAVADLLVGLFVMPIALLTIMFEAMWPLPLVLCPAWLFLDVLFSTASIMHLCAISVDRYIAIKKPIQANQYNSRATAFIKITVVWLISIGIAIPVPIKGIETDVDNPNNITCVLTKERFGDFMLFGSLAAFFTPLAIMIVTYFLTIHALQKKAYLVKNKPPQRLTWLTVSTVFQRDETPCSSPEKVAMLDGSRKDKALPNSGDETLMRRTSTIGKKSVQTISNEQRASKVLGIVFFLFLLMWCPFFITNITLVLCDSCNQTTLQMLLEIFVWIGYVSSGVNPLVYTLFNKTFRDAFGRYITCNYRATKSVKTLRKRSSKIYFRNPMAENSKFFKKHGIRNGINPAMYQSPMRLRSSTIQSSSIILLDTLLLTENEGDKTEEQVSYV
Description: (§2) The binding of compounds of formula (I) to serotonin receptors was determined in vitro by standard methods. The preparations were investigated in accordance with the assays given hereinafter.
Method (b): For the binding to the 5-HT2B receptor the 5-HT2B receptors were radiolabeled with [^3H]-5-HT. The affinity of the compounds for human 5-HT2B receptors in a CHO cell line was determined according to the procedure of K. Schmuck, C. Ullmer, P. Engels and H. Lubbert, FEBS Lett., 1994, 342, 85-90.
(§3) The Ki values are calculated according to the method of Cheng, Yung-Chi, and Prusoff, W. H. Biochem. Pharmacol. 1973, 22(23) 3099-108.

[6] = target: T2, 5-HT2C receptor; test: Binding to the 5-HT2C receptor, Method (a), [3H]-5-HT; design: expressed in transfected cells; host or cells: CHO cell line
Description: as §2
Method (a): For the binding to the 5-HT2C receptor the 5-HT2C receptors were radiolabeled with [^3H]-5-HT. The affinity of the compounds for 5-HT2C receptors in a CHO cell line was determined according to the procedure of D. Hoyer, G. Engel and H. O. Kalkman, European J. Pharmacol., 1985, 118, 13-23.
as §3

[7] = target: T1, 5-HT2A receptor; test: Binding to the 5-HT2A receptor, Method (c), [125I]-DOI; design: expressed in transfected cells; host or cells: CHO cell line
Description: as §2
Method (c): For the binding to the 5-HT2A receptor the 5-HT2A receptors were radiolabeled with [^125I]-DOI. The affinity of the compounds for 5-HT2A receptors in a CHO cell line was determined according to the procedure of D. J. McKenna and S. J. Peroutka, J. Neurosci., 1989, 9, 3482-90.
as §3

[8] = Pharmacodynamic study: food intake up to 16 hours after compound administration; assay type: in vivo, rats; conditions: 30 mg/kg p.o.
Description: The in vivo activity of compounds of formula (I) was assayed for ability to regulate feeding behaviour during a time period up to 16 hours after compound administration.
The test compound was assessed following acute administration. Each study utilised a between-subjects design (typically n=8) and compared the effects of a single dose of the test agent to those of vehicle.
Example 1 was administered at a dose of 30 mg/kg p.o. in a distilled water vehicle 2, 4, 8, or 16 hours prior to food presentation. At the time of food presentation (standard laboratory chow) all animals had been subjected to a 23-hour food deprivation period. Water was freely available throughout the study. The amount of food consumed over 1 hour was determined. Food intake data were subjected to two-way analysis of variance (ANOVA) with drug treatment as a between-subjects factor and injection-test-interval as a between subjects factor. Newman-Keuls tests were performed to assess whether differences between the vehicle mean and the drug-treated mean at each level of injection-test-interval were significant. All statistical analyses were performed using Statistica Software, Version 5.0 (Statsoft Inc.) and Microsoft Excel 7.0 (Microsoft Corp.).

T1 sequence (P28223 whole entry): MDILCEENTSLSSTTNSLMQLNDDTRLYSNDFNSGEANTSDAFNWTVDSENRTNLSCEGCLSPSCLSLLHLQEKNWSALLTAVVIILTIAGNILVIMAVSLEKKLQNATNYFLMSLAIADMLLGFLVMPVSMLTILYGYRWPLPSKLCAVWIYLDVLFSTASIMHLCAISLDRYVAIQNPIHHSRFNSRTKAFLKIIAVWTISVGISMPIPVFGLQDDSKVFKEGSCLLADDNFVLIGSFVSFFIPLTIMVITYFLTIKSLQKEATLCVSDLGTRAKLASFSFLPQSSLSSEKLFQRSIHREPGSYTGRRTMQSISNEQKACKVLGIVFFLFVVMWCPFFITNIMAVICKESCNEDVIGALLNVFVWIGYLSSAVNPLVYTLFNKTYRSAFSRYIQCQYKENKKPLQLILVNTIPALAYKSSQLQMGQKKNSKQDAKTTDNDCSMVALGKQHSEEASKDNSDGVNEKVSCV

For `C[C@H](N)Cc1c2n(c3ccc(OC4CC4)cc13)CCC2` [Example 3, (S)-2-(6-cyclopropoxy-2,3-dihydro-1H-3a-aza-cyclopenta[a]inden-8-yl)-1-methyl-ethylamine], the EC50 ([1]; FLIPR, CHO cells, read-out: h5-HT2A EC50) was over 1 µM, the EC50 ([2]; FLIPR, CHO cells, read-out: h5-HT2c EC50) was 0.003 µM and the “h5-HT2c Relative Efficacy” value [2] was 84%.
Work on `CCOCCCOc1ccc2c(c1)c(C[C@H](C)N)c1n2CCC1.Cl` yielded a melting point of 132 °C.
For `Clc1cccc(N2CCNCC2)c1` [mCPP, m-chlorophenylpiperazine], the behavioural satiety sequence [3] is given as “accelerate the appearance of the behavioural satiety sequence”, the “food intake in rats” value [3] is given as “reduce food intake” and the “food intake in female volunteers” value ([4]; single dose) is given as “decreased food intake”. For the same compound, the “appetite and body weight of obese male and female subjects” value ([4]; subchronic treatment for a 14 day period) was “decreased the appetite and body weight”.
With `CCOc1ccc2c(c1)c(C[C@H](C)N)c1n2CCC1` [Example 1, (S)-2-(6-ethoxy-2,3-dihydro-1H-3a-aza-cyclopenta[a]inden-8-yl)-1-methyl-ethylamine] the Ki [5] was 0.83 µM, the “h5-HT2A Relative Efficacy” value ([1]; relative to response of 10 μM 5-HT (100%)) was 33% and the Ki ([6]; Method (a), [3H]-5-HT, CHO cell line, Ki by Cheng-Prusoff, read-out: Ki (2C)) was 0.011 µM. For the same compound, the Ki [7] was 0.41 µM, the “h5-HT2c Relative Efficacy” value [2] was 87% and the “duration of action in reducing rat food intake” value [8] was “at least 16 hours”.
`COCCOc1ccc2c(c1)c(C[C@H](C)N)c1n2CCC1` [Example 2, (S)-2-[6-(2-methoxy-ethoxy)-2,3-dihydro-1H-3a-aza-cyclopenta[a]inden-8-yl]-1-methyl-ethyl amine] gave a Ki ([5]; Method (b), [3H]-5-HT, human 5-HT2B in CHO cell line, Ki by Cheng-Prusoff, read-out: Ki (2B)) of 0.48 µM, a Ki [6] of 0.019 µM and a Ki ([7]; Method (c), [125I]-DOI, CHO cell line, Ki by Cheng-Prusoff, read-out: Ki (2A)) of 0.52 µM.
`CCOCCOc1ccc2c(c1)c(C[C@H](C)N)c1n2CCC1.Cl` showed a melting point of 170 to 172 °C.
In the case of `COCCCCOc1ccc2c(c1)c(C[C@H](C)N)c1n2CCC1.Cl`, the melting point is reported as 107 °C.

— patent US6610685B2, “Fused indole derivatives” (Hoffmann-La Roche Inc., priority 2000, dated 2003)
